Measurements as given in PubChem BioAssay AID1745844 (Carcinogenic Potency Database (CPDB), 2022).
Values joined by “and” are separate entries in the source; they are usually repeats but may differ in a detail not shown here. Equal values may be shown once. Active and inactive are the calls of the source. The rule behind the calls is not given here.

Tested on: rodent lifetime carcinogenesis bioassay, tumor incidence TD50
Test: chronic cancer bioassays in animals – CPDB, compiled studies (AID 1745844)

CCc1cccc2c3c([nH]c12)C(CC)(CC(=O)O)OCC3 (stereo unspecified)
carcinogen call (mouse, strain Charles River CD1, females, in feed, site: any site (literature study), lesion: benign tumor, dosed 78 weeks, study length 78 weeks): negative (inactive) | TD50 (mouse, strain Charles River CD1, females, in feed, site: any site (literature study), lesion: malignant tumor, dosed 78 weeks, study length 78 weeks): 336 mg/kg/day (inactive) | carcinogen call (mouse, strain Charles River CD1, females, in feed, site: any site (literature study), lesion: several types, types named in the paper, dosed 78 weeks, study length 78 weeks): negative (inactive) | carcinogen call (mouse, strain Charles River CD1, females, in feed, site: liver, lesion: hepatocellular adenoma, dosed 78 weeks, study length 78 weeks): negative (inactive) | carcinogen call (mouse, strain Charles River CD1, females, in feed, site: lung, lesion: alveolar/bronchiolar carcinoma, dosed 78 weeks, study length 78 weeks): negative (inactive) | carcinogen call (mouse, strain Charles River CD1, males, in feed, site: any site (literature study), lesion: benign tumor, dosed 78 weeks, study length 78 weeks): negative (inactive) | carcinogen call (mouse, strain Charles River CD1, males, in feed, site: any site (literature study), lesion: malignant tumor, dosed 78 weeks, study length 78 weeks): negative (inactive) | carcinogen call (mouse, strain Charles River CD1, males, in feed, site: any site (literature study), lesion: several types, types named in the paper, dosed 78 weeks, study length 78 weeks): negative (inactive) | carcinogen call (mouse, strain Charles River CD1, males, in feed, site: liver, lesion: hepatocellular adenoma, dosed 78 weeks, study length 78 weeks): negative (inactive) | carcinogen call (mouse, strain Charles River CD1, males, in feed, site: liver, lesion: hepatocellular carcinoma, dosed 78 weeks, study length 78 weeks): negative (inactive) | carcinogen call (rat, strain Charles River CD (Sprague-Dawley), females, in feed, site: any site (literature study), lesion: benign tumor, dosed 104 weeks, study length 104 weeks): negative (inactive) | carcinogen call (rat, strain Charles River CD (Sprague-Dawley), females, in feed, site: any site (literature study), lesion: malignant tumor, dosed 104 weeks, study length 104 weeks): negative (inactive) | carcinogen call (rat, strain Charles River CD (Sprague-Dawley), females, in feed, site: any site (literature study), lesion: several types, types named in the paper, dosed 104 weeks, study length 104 weeks): negative (inactive) | carcinogen call (rat, strain Charles River CD (Sprague-Dawley), females, in feed, site: liver, lesion: hepatocellular carcinoma, dosed 104 weeks, study length 104 weeks): negative (inactive) | TD50 (rat, strain Charles River CD (Sprague-Dawley), females, in feed, site: liver, lesion: neoplastic nodule, dosed 104 weeks, study length 104 weeks): 1010 mg/kg/day (inactive) | carcinogen call (rat, strain Charles River CD (Sprague-Dawley), males, in feed, site: any site (literature study), lesion: benign tumor, dosed 104 weeks, study length 104 weeks): negative (inactive) | carcinogen call (rat, strain Charles River CD (Sprague-Dawley), males, in feed, site: any site (literature study), lesion: malignant tumor, dosed 104 weeks, study length 104 weeks): negative (inactive) | carcinogen call (rat, strain Charles River CD (Sprague-Dawley), males, in feed, site: any site (literature study), lesion: several types, types named in the paper, dosed 104 weeks, study length 104 weeks): negative (inactive) | carcinogen call (rat, strain Charles River CD (Sprague-Dawley), males, in feed, site: liver, lesion: hepatocellular carcinoma, dosed 104 weeks, study length 104 weeks): negative (inactive) | TD50 (rat, strain Charles River CD (Sprague-Dawley), males, in feed, site: liver, lesion: neoplastic nodule, dosed 104 weeks, study length 104 weeks): 1400 mg/kg/day (inactive)

c1cc(OCC2CO2)cc(OCC2CO2)c1 (stereo unspecified)
TD50 (mouse, strain B6C3F1, females, by gavage, site: any site (literature study), lesion: several types, types named in the paper, dosed 103 weeks, study length 105 weeks): 32.3 mg/kg/day | TD50 (mouse, strain B6C3F1, females, by gavage, site: liver, lesion: hepatocellular adenoma + hepatocellular carcinoma + neoplastic nodule, dosed 103 weeks, study length 105 weeks): 169 mg/kg/day | TD50 (mouse, strain B6C3F1, females, by gavage, site: liver, lesion: hepatocellular carcinoma, dosed 103 weeks, study length 105 weeks): 221 mg/kg/day | TD50 (mouse, strain B6C3F1, females, by gavage, site: lung, lesion: alveolar/bronchiolar adenoma + alveolar/bronchiolar carcinoma, dosed 103 weeks, study length 105 weeks): 4790 mg/kg/day | TD50 (mouse, strain B6C3F1, females, by gavage, site: stomach, lesion: papillomatosis + squamous-cell carcinoma + squamous-cell papilloma, dosed 103 weeks, study length 105 weeks): 17.9 mg/kg/day | TD50 (mouse, strain B6C3F1, females, by gavage, site: stomach, lesion: papillomatosis + squamous-cell papilloma, dosed 103 weeks, study length 105 weeks): 48.2 mg/kg/day | TD50 (mouse, strain B6C3F1, females, by gavage, site: stomach, lesion: squamous-cell carcinoma, dosed 103 weeks, study length 105 weeks): 36.3 mg/kg/day | TD50 (mouse, strain B6C3F1, males, by gavage, site: any site (literature study), lesion: several types, types named in the paper, dosed 103 weeks, study length 104 weeks): 36.6 mg/kg/day | TD50 (mouse, strain B6C3F1, males, by gavage, site: liver, lesion: hepatocellular adenoma + hepatocellular carcinoma + neoplastic nodule, dosed 103 weeks, study length 104 weeks): 84.7 mg/kg/day | TD50 (mouse, strain B6C3F1, males, by gavage, site: lung, lesion: alveolar/bronchiolar adenoma + alveolar/bronchiolar carcinoma, dosed 103 weeks, study length 104 weeks): 1350 mg/kg/day | TD50 (mouse, strain B6C3F1, males, by gavage, site: stomach, lesion: papillomatosis + squamous-cell carcinoma + squamous-cell papilloma, dosed 103 weeks, study length 104 weeks): 37.8 mg/kg/day | TD50 (mouse, strain B6C3F1, males, by gavage, site: stomach, lesion: papillomatosis + squamous-cell papilloma, dosed 103 weeks, study length 104 weeks): 145 mg/kg/day | TD50 (mouse, strain B6C3F1, males, by gavage, site: stomach, lesion: squamous-cell carcinoma, dosed 103 weeks, study length 104 weeks): 55.5 mg/kg/day | TD50 (rat, strain Fischer 344, females, by gavage, site: any site (literature study), lesion: several types, types named in the paper, dosed 103 weeks, study length 104 weeks): 8.53 mg/kg/day and 16 mg/kg/day | TD50 (rat, strain Fischer 344, females, by gavage, site: forestomach, lesion: squamous-cell carcinoma + squamous-cell papilloma, dosed 103 weeks, study length 104 weeks): 3.53 mg/kg/day | TD50 (rat, strain Fischer 344, females, by gavage, site: forestomach, lesion: squamous-cell carcinoma, dosed 103 weeks, study length 104 weeks): 5.93 mg/kg/day | TD50 (rat, strain Fischer 344, females, by gavage, site: forestomach, lesion: squamous-cell papilloma, dosed 103 weeks, study length 104 weeks): 8.95 mg/kg/day | TD50 (rat, strain Fischer 344, females, by gavage, site: liver, lesion: hepatocellular adenoma + hepatocellular carcinoma + neoplastic nodule, dosed 103 weeks, study length 104 weeks): 174 mg/kg/day | TD50 (rat, strain Fischer 344, females, by gavage, site: stomach, lesion: squamous-cell carcinoma + squamous-cell papilloma, dosed 103 weeks, study length 104 weeks): 4.47 mg/kg/day | TD50 (rat, strain Fischer 344, females, by gavage, site: stomach, lesion: squamous-cell carcinoma, dosed 103 weeks, study length 104 weeks): 5.1 mg/kg/day | TD50 (rat, strain Fischer 344, females, by gavage, site: stomach, lesion: squamous-cell papilloma, dosed 103 weeks, study length 104 weeks): 45.5 mg/kg/day | TD50 (rat, strain Fischer 344, males, by gavage, site: any site (literature study), lesion: several types, types named in the paper, dosed 98 weeks, study length 104 weeks): 2.43 mg/kg/day | TD50 (rat, strain Fischer 344, males, by gavage, site: any site (literature study), lesion: several types, types named in the paper, dosed 103 weeks, study length 104 weeks): 4.61 mg/kg/day | TD50 (rat, strain Fischer 344, males, by gavage, site: forestomach, lesion: squamous-cell carcinoma + squamous-cell papilloma, dosed 103 weeks, study length 104 weeks): 2.33 mg/kg/day | TD50 (rat, strain Fischer 344, males, by gavage, site: forestomach, lesion: squamous-cell carcinoma, dosed 103 weeks, study length 104 weeks): 2.73 mg/kg/day | TD50 (rat, strain Fischer 344, males, by gavage, site: forestomach, lesion: squamous-cell papilloma, dosed 103 weeks, study length 104 weeks): 8.16 mg/kg/day | TD50 (rat, strain Fischer 344, males, by gavage, site: liver, lesion: hepatocellular adenoma + hepatocellular carcinoma + neoplastic nodule, dosed 98 weeks, study length 104 weeks): 114 mg/kg/day | TD50 (rat, strain Fischer 344, males, by gavage, site: liver, lesion: hepatocellular adenoma + hepatocellular carcinoma + neoplastic nodule, dosed 103 weeks, study length 104 weeks): 640 mg/kg/day | TD50 (rat, strain Fischer 344, males, by gavage, site: pituitary gland, lesion: adenoma, NOS, dosed 98 weeks, study length 104 weeks): 12.2 mg/kg/day | TD50 (rat, strain Fischer 344, males, by gavage, site: stomach, lesion: squamous-cell carcinoma + squamous-cell papilloma, dosed 98 weeks, study length 104 weeks): 2.89 mg/kg/day | TD50 (rat, strain Fischer 344, males, by gavage, site: stomach, lesion: squamous-cell carcinoma, dosed 98 weeks, study length 104 weeks): 3.06 mg/kg/day | TD50 (rat, strain Fischer 344, males, by gavage, site: stomach, lesion: squamous-cell papilloma, dosed 98 weeks, study length 104 weeks): 24.7 mg/kg/day | TD50 (rat, strain Fischer 344, males, by gavage, site: testis, lesion: interstitial-cell tumor, dosed 98 weeks, study length 104 weeks): 2.35 mg/kg/day

O=NN1CCOC1=O
TD50 (rat, strain MRC-Wistar, males, in drinking water, site: any site (literature study), lesion: one or several types, types not named, dosed 70 weeks, study length 70 weeks): 0.335 mg/kg/day | carcinogen call (rat, strain MRC-Wistar, males, in drinking water, site: intestine, lesion: several types, types named in the paper, dosed 64 weeks, study length 64 weeks): positive | TD50 (rat, strain MRC-Wistar, males, in drinking water, site: intestine, lesion: several types, types named in the paper, dosed 70 weeks, study length 70 weeks): 0.729 mg/kg/day | TD50 (rat, strain MRC-Wistar, males, in drinking water, site: liver, lesion: several types, types named in the paper, dosed 64 weeks, study length 64 weeks): 0.582 mg/kg/day | TD50 (rat, strain MRC-Wistar, males, in drinking water, site: liver, lesion: several types, types named in the paper, dosed 70 weeks, study length 70 weeks): 1.15 mg/kg/day

C=CCOC(=O)CC(C)C
TD50 (mouse, strain B6C3F1, females, by gavage, site: all sites, lesion: malignant lymphoma, histiocytic type + malignant lymphoma, mixed type + malignant lymphoma, lymphocytic type, dosed 103 weeks, study length 106 weeks): 62.8 mg/kg/day | TD50 (mouse, strain B6C3F1, females, by gavage, site: all sites, lesion: malignant lymphoma, histiocytic type, dosed 103 weeks, study length 106 weeks): 238 mg/kg/day | TD50 (mouse, strain B6C3F1, females, by gavage, site: all sites, lesion: malignant lymphoma, mixed type, dosed 103 weeks, study length 106 weeks): 102 mg/kg/day | TD50 (mouse, strain B6C3F1, females, by gavage, site: any site (literature study), lesion: several types, types named in the paper, dosed 103 weeks, study length 106 weeks): 65.5 mg/kg/day | TD50 (mouse, strain B6C3F1, females, by gavage, site: lung, lesion: alveolar/bronchiolar adenoma + alveolar/bronchiolar carcinoma, dosed 103 weeks, study length 106 weeks): 4450 mg/kg/day | TD50 (mouse, strain B6C3F1, males, by gavage, site: any site (literature study), lesion: several types, types named in the paper, dosed 103 weeks, study length 106 weeks): 206 mg/kg/day | TD50 (mouse, strain B6C3F1, males, by gavage, site: gastric mucosa, lesion: squamous-cell papilloma, dosed 103 weeks, study length 106 weeks): 295 mg/kg/day (inactive) | TD50 (rat, strain Fischer 344, females, by gavage, site: any site (literature study), lesion: several types, types named in the paper, dosed 103 weeks, study length 106 weeks): 43.5 mg/kg/day (inactive) | TD50 (rat, strain Fischer 344, males, by gavage, site: all sites, lesion: monocytic leukemia + malignant lymphoma, histiocytic type, dosed 103 weeks, study length 106 weeks): 123 mg/kg/day | TD50 (rat, strain Fischer 344, males, by gavage, site: all sites, lesion: monocytic leukemia, dosed 103 weeks, study length 106 weeks): 149 mg/kg/day | TD50 (rat, strain Fischer 344, males, by gavage, site: any site (literature study), lesion: several types, types named in the paper, dosed 103 weeks, study length 106 weeks): 50.5 mg/kg/day | TD50 (rat, strain Fischer 344, males, by gavage, site: liver, lesion: hepatocellular adenoma + hepatocellular carcinoma + neoplastic nodule, dosed 103 weeks, study length 106 weeks): 264 mg/kg/day | TD50 (rat, strain Fischer 344, males, by gavage, site: preputial gland, lesion: adenoma, NOS + carcinoma, NOS + squamous-cell carcinoma, dosed 103 weeks, study length 106 weeks): 136 mg/kg/day
